Results on one compound are retold here after patent publication EP3325012B1, “CINEOLE-CONTAINING COMPOSITION FOR TREATING NOSE POLYPS” (Maria Clementine Martin Klosterfrau Vertriebsgesellschaft …, priority 2015, dated 2017).

Type in all cases: cell-based, Mensch
Assay [1] has as its system GSK-3-alpha/beta. Briefly: Western blot of phospho-GSK-3 (Ser-9/-21) in nasal polyp samples. The conditions noted are these: 100 µM, 24 h (Figur 4A). The method, then:
Lysate von Geweben wurden durch Erhitzen über einen Zeitraum von 5 Minuten in einfachem SDS-Probenpuffer (Carl Roth GmbH, Karlsruhe, Deutschland) denaturiert. Die Proteinkonzentrationen wurden mittels des Bradford-Tests bestimmt und jeweils 30 µg Gesamtprotein wurden zur SDS-Polyacrylamid-Gel Elektrophorese eingesetzt (Mini-Protean TGX®, Any kD, BioRad, Hercules, CA, USA) und anschließend auf Nitrozellulosemembranen übertragen. Die Übertragung der Proteine wurde mittels Ponceau-Färbung kontrolliert. […]
Um die Beladungsmenge jeder Spur zu bestimmen, wurden die Nitrozellulosemembranen über Nacht bei 4 °C mit einem primären Antikörper der GAPDH (Cell Signaling Technology Inc., Massachusetts, Katalognummer: 14C10) in einer Verdünnung von 1 : 1.000 inkubiert. […] Die Pixeldichten wurden quantifiziert und mittels Fusion FX7® unter Einsatz von Bio-1D Software® dokumentiert. […]
(In general: A western blot detects proteins with antibodies after separation by electrophoresis.)

Assay [2] relates to Polyposis nasi et sinuum. Briefly: Cell vitality of polyp single-cell suspensions in culture. To be noted: 1mM Cineol versus standard medium, culture over 288 Stunden; effect after 96 bis 144 Stunden; polyps of 5 patients. The method, then: Proben von Nasenpolypen wurden in PBS-Puffer gewaschen und in sterilem serumfreiem "High Glucose Dulbecco's Modified Eagle Medium" (PAA, Pasching, Österreich) mit einer Skalpellklinge vorsichtig in kleine Stücke zerkleinert, wobei das Medium 1 % L-Glutamin, 1 % Natriumpyruvat, 1 % nichtessentielle Aminosäuren, 2 % Amphotericin B, 2 % Streptomycin und 2 % Penicillin, ergänzt mit 10 % FCS, und 25 mM HEPES Puffer, enthielt (alle von PAA, Pasching, Österreich). Danach wurden die Gewebeproben durch eine enzymatische Behandlung und Waschschritte mit Collagenase Typ II (31,5 mg/ml, GIBCO, Eggenstein, Deutschland) und Hyaluronidase (3,99 mg/ml, Sigma, München, Deutschland) in einem ersten Schritt und mit Dispase (33,4 mg/ml, Sigma, München, Deutschland) in einem zweiten Schritt jeweils unter Schütteln bei 37 °C für 120 Minuten enzymatisch verdaut. Zwischen den enzymatischen Behandlungen und den Waschschritten wurden die Zellen zentrifugiert. Die resultierenden Zellsuspensionen wurden in PBS (PAA, Pasching, Österreich), enthaltend 2 % BSA, gewaschen und jeweils durch einen 70 µm und einen 60 µm Nylon-Zellfilter (Falcon, Becton Dickinson Labware, Heidelberg, Deutschland) filtriert.
Erste Vorversuche zum Einfluss von Cineol auf die Progression von Polyposis nasi et sinuum wurden durchgeführt. […]

In assay [3] the test system is Transkriptionsfaktors NF-kB. Briefly: NF-kB transcription factor activity in polyp material. The conditions noted are these: in Polyposis nasi et sinuum; TNF-alpha as positive control. The text has this:
Da auch für Polyposis nasi et sinuum postuliert wird, dass Entzündungsparameter einen entscheidenden Einfluss auf die Progression dieser Erkrankung haben, untersuchte die Anmelderin den Einfluss von Cineol auf die Aktivität des Transkriptionsfaktors Nuclear Factor kappa B (NF-kB) und auf die Aktivität eines breiten Spektrums verschiedener Phosphokinasen, um so die molekularen Angriffspunkte von Cineol in verschiedenen Biosynthesewegen der Zelle hinsichtlich des Polyposis nasi et sinuum-"Mikromilieus" zu identifizieren.
Bei den Messergebnissen wurde TNF-alpha (tumor necrosis factor-alpha) als etablierter Stimulus der NF-kB Aktivität und somit als interne Positivkontrolle verwendet.

Turning to `CC12CCC(CC1)C(C)(C)O2` [1,8-Cineol, 1,3,3-Trimethyl-2-oxabicyclo[2.2.2]octan], the “Phosphorylierung von GSK-3-alpha/beta an Serin-9/-21” value in assay [1] is “verringerten Phosphorylierung”. The Zellvitalität result in assay [2] is listed as “massiven Abfall”. Moreover, the “Aktivität des Transkriptionsfaktors NF-kB” value in assay [3] is recorded as “keinen inhibierenden Einfluss hierauf hat, sondern vielmehr leicht aktivierend”.
